Reference: ChEMBL document CHEMBL4316589, “Attachment of a 5-nitrofuroyl moiety to spirocyclic piperidines produces non-toxic nitrofurans that are efficacious in vitro against multidrug-resistant Mycobacterium tuberculosis” (Eur J Med Chem, 2019)
≈ marks a conversion by molar mass, not a printed value.

What was measured:
[1] = test system: Mycobacterium tuberculosis; assay: Antimycobacterial activity against drug-sensitive Mycobacterium tuberculosis H37Rv measured after 7 days by resazurin dye-based assay; format: functional; details: 168 h
ARPE-19 [2] = assay: Cytotoxicity against human ARPE19 cells assessed as effect on cell viability at 10 to 100 uM after 48 hrs in normoxic condition by MTT assay; format: cell-based; details: arpe-19, 48 h
ARPE-19 [3] = assay: Cytotoxicity against human ARPE19 cells assessed as effect on cell viability at 100 uM after 48 hrs in normoxic condition by MTT assay; format: cell-based; details: arpe-19, 48 h
Enterococcus faecium = assay: Antibacterial activity against Enterococcus faecium assessed as bacterial growth inhibition zone diameter at 5 ug after 18 hrs by Kirby-Bauer disk diffusion method; format: functional; details: read-out: DIZ
Staphylococcus aureus = assay: Antibacterial activity against Staphylococcus aureus assessed as bacterial growth inhibition zone diameter at 5 ug after 18 hrs by Kirby-Bauer disk diffusion method; format: functional; details: read-out: DIZ
Klebsiella pneumoniae = assay: Antibacterial activity against Klebsiella pneumoniae assessed as bacterial growth inhibition zone diameter at 5 ug after 18 hrs by Kirby-Bauer disk diffusion method; format: functional; details: read-out: DIZ
Acinetobacter baumannii = assay: Antibacterial activity against Acinetobacter baumannii assessed as bacterial growth inhibition zone diameter at 5 ug after 18 hrs by Kirby-Bauer disk diffusion method; format: functional; details: read-out: DIZ
Pseudomonas aeruginosa = assay: Antibacterial activity against Pseudomonas aeruginosa assessed as bacterial growth inhibition zone diameter at 5 ug after 18 hrs by Kirby-Bauer disk diffusion method; format: functional; details: read-out: DIZ
Klebsiella aerogenes = assay: Antibacterial activity against Enterobacter aerogenes assessed as bacterial growth inhibition zone diameter at 5 ug after 18 hrs by Kirby-Bauer disk diffusion method; format: functional; details: read-out: DIZ
[4] = Toxicity in po dosed C57BL6 mouse administered via metal gavage measured daily over 14 days; format: organism-based; details: in vivo
[5] = Toxicity in C57BL6 mouse assessed as mortality at 900 mg/kg, po administered via metal gavage measured daily over 14 days; format: organism-based; details: in vivo, 336 h
[6] = Toxicity in C57BL6 mouse assessed as mortality at 400 mg/kg, po administered via metal gavage measured daily over 14 days; format: organism-based; details: in vivo, 336 h

In the case of `O=C(c1ccc([N+](=O)[O-])o1)N1CCC2(CC1)CC(NS(=O)(=O)c1ccccc1F)CCO2` (centres undefined), the MIC [1] is reported as 50 µg/mL (≈ 107 µM).
With `CCOC1CCOC2(CCN(C(=O)c3ccc([N+](=O)[O-])o3)CC2)C1` (centres undefined) the MIC [1] was 50 µg/mL (≈ 148 µM).
For `O=C(c1ccc([N+](=O)[O-])o1)N1CCC2(CC1)CC(OCc1ccc(F)cc1)CCO2` (centres undefined), the MIC [1] was 3.1 µg/mL (≈ 7.41 µM) and the Activity (ARPE-19 [2]) was “Non-Toxic”.
`Cl.NC1CCOC2(CCN(C(=O)c3ccc([N+](=O)[O-])o3)CC2)C1` (centres undefined) showed an MIC [1] greater than 100 µg/mL.
`Cc1cccc(S(=O)(=O)NC2CCOC3(CCN(C(=O)c4ccc([N+](=O)[O-])o4)CC3)C2)c1` (centres undefined) gave an MIC [1] of 50 µg/mL (≈ 108 µM).
`COc1ccc(S(=O)(=O)NC2CCOC3(CCN(C(=O)c4ccc([N+](=O)[O-])o4)CC3)C2)cc1` (centres undefined) gave an MIC [1] of 50 µg/mL (≈ 104 µM).
With `Cc1ccc(CC2CCOC3(CCN(C(=O)c4ccc([N+](=O)[O-])o4)CC3)C2)cc1` (centres undefined) the MIC [1] was 3.1 µg/mL (≈ 7.78 µM) and the Activity (ARPE-19 [3]) was “Toxic”.
For `CN(Cc1ccccc1)C(=O)CC1CCOC2(CCN(C(=O)c3ccc([N+](=O)[O-])o3)CC2)C1` (centres undefined), the MIC [1] was 12.5 µg/mL (≈ 27.4 µM).
`CS(=O)(=O)NC1CCOC2(CCN(C(=O)c3ccc([N+](=O)[O-])o3)CC2)C1` (centres undefined) showed an MIC [1] greater than 100 µg/mL.
In the case of `O=C(c1ccc([N+](=O)[O-])o1)N1CCC2(CC1)CC(Oc1ccncc1)CCO2` (centres undefined), the MIC [1] is reported as 25 µg/mL (≈ 64.5 µM).
Work on `O=C(c1ccc([N+](=O)[O-])o1)N1CCC2(CC1)CC(N1CCOCC1)CCO2` (centres undefined) yielded an MIC [1] greater than 100 µg/mL.
With `COCCc1noc(CC2CCOC3(CCN(C(=O)c4ccc([N+](=O)[O-])o4)CC3)C2)n1` (centres undefined) the MIC [1] was 6.2 µg/mL (≈ 14.3 µM) and the Activity (ARPE-19 [2]) was “Non-Toxic”.
With `O=C(c1ccc([N+](=O)[O-])o1)N1CCC2(CCCCO2)CC1` the MIC [1] was 3.1 µg/mL (≈ 10.5 µM) and the Activity (ARPE-19 [2]) was “Non-Toxic”.
Work on `O=C(c1ccc([N+](=O)[O-])o1)N1CCC2(CC1)CC(NS(=O)(=O)c1ccc(F)cc1)CCO2` (centres undefined) yielded an MIC [1] of 50 µg/mL (≈ 107 µM).
Work on `CNC(=O)CC1CCOC2(CCN(C(=O)c3ccc([N+](=O)[O-])o3)CC2)C1` (centres undefined) yielded an MIC [1] greater than 100 µg/mL.
With `O=C(c1ccc([N+](=O)[O-])o1)N1CCC2(CC1)CC(OCC1CC1)CCO2` (centres undefined) the MIC [1] was 25 µg/mL (≈ 68.6 µM).
With `O=C(c1ccc([N+](=O)[O-])o1)N1CCC2(CC1)CC(Cc1ccc(F)cc1)CCO2` (centres undefined) the MIC [1] was 12.5 µg/mL (≈ 31.1 µM).
For `O=C(c1ccc([N+](=O)[O-])o1)N1CCC2(CC1)CC(NS(=O)(=O)c1ccccc1)CCO2` (centres undefined), the MIC [1] was 50 µg/mL (≈ 111 µM).
`O=C(c1ccc([N+](=O)[O-])o1)N1CCC2(CC1)CC(Cc1nc(-c3cccnc3)no1)CCO2` (centres undefined) gave an MIC [1] of 1.6 µg/mL (≈ 3.53 µM), a zone of inhibition at 5 µg/disc (Enterococcus faecium) of 0 mm and a zone of inhibition at 5 µg/disc (Staphylococcus aureus) of 0 mm. The zone of inhibition at 5 µg/disc (Klebsiella pneumoniae) was 0 mm, the zone of inhibition at 5 µg/disc (Acinetobacter baumannii) was 0 mm and the zone of inhibition at 5 µg/disc (Pseudomonas aeruginosa) was 0 mm. For the same compound, the zone of inhibition at 5 µg/disc (Klebsiella aerogenes) was 0 mm, the Activity (ARPE-19 [2]) was “Non-Toxic” and the LD50 at 336 h ([4]; C57BL6, mouse) was 617 mg/kg. The LD16 ([4]; mouse, 336 h) was 198 mg/kg, the LD84 ([4]; mouse, 336 h) was 787.5 mg/kg and the LD100 ([4]; mouse, 336 h) was 900 mg/kg. The Activity [5] was “Toxic” and the Activity [6] was “Non-Toxic”.
Compound `O=C(c1ccc([N+](=O)[O-])o1)N1CCC2(CC1)CC(NS(=O)(=O)c1ccc(Br)cc1)CCO2` (centres undefined) has an MIC [1] of 25 µg/mL (≈ 47.3 µM).
Work on `O=C(c1ccc([N+](=O)[O-])o1)N1CCC2(CC1)CC(NS(=O)(=O)c1ccc(F)c(Cl)c1)CCO2` (centres undefined) yielded an MIC [1] of 25 µg/mL (≈ 49.8 µM).
For `CC(C)(C)OC(=O)NC1CCOC2(CCN(C(=O)c3ccc([N+](=O)[O-])o3)CC2)C1` (centres undefined), the MIC [1] was 25 µg/mL (≈ 61.1 µM).
In the case of `COc1ccc(CC2CCOC3(CCN(C(=O)c4ccc([N+](=O)[O-])o4)CC3)C2)cc1` (centres undefined), the MIC [1] is reported as 3.1 µg/mL (≈ 7.48 µM) and the Activity (ARPE-19 [3]) is reported as “Toxic”.
Compound `O=C(O)c1cn(C2CC2)c2cc(N3CCNCC3)c(F)cc2c1=O` [CIPROFLOXACIN] has a zone of inhibition at 5 µg/disc (Enterococcus faecium) of 23 mm, a zone of inhibition at 5 µg/disc (Staphylococcus aureus) of 23 mm and a zone of inhibition at 5 µg/disc (Klebsiella pneumoniae) of 25 mm. It also gave a zone of inhibition at 5 µg/disc (Acinetobacter baumannii) of 30 mm, a zone of inhibition at 5 µg/disc (Pseudomonas aeruginosa) of 23 mm and a zone of inhibition at 5 µg/disc (Klebsiella aerogenes) of 25 mm.
In the case of `O=C(c1ccc([N+](=O)[O-])o1)N1CCC2(CC1)CC(Cc1nc(C3CC3)no1)CCO2` (centres undefined), the MIC [1] is reported as 3.1 µg/mL (≈ 7.44 µM) and the Activity (ARPE-19 [2]) is reported as “Non-Toxic”.
